# Source: patent US20220401514A1, “ANTIMICROBIAL, BACTERIOPHAGE-DERIVED POLYPEPTIDES AND THEIR USE AGAINST GRAM-NEGATIVE AND ACID-FAST BACTERIA” (CONTRAFECT CORPORATION, priority 2019, published 2022)
# Read-outs that look alike come from different tables or passages of the source.
# How the values were obtained:
# [1] = system: P. aeruginosa strain CFS-1292; experiment: MIC in presence and absence of Survanta pulmonary surfactant; type: cell-based, Pseudomonas aeruginosa
# [2] = system: Mycobacterium tuberculosis strains
# Protocol: MIC values for various Chp peptides were determined using the CLSI method for broth microdilution in 96-well microtiter format.
# Next, MIC values for various Chp peptides were determined using the CLSI method above for broth microdilution in 96-well microtiter format for two different Mycobacterium tuberculosis strains. The MIC was determined as explained above for the NTM strains.
# S. maltophilia = experiment: MIC against S. maltophilia isolates; type: cell-based, Stenotrophomonas maltophilia; conditions: for MIC50 / MIC100 / MIC Range: S. maltophilia isolates (n per peptide in table)
# How it was run: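 MIC in μg/mL for Chp peptides across several S. maltophilia isolates, n denoting the number of isolates tested.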
# [3] = system: P. aeruginosa strain CFS-1292; experiment: MIC in presence and absence of NaCl (140 mM); type: cell-based, Pseudomonas aeruginosa; conditions: for Fold change in MIC: CAA + 140 mM NaCl versus CAA without added NaCl; for MIC, CAA + 140 mM NaCl / MIC, CAA (no added NaCl): P. aeruginosa CFS-1292
# Protocol: Certain Chp peptides were evaluated over a range of physiological NaCl levels and pH values, and were further evaluated for activity in the presence of various divalent cations.
# [4] = system: M. kansasii Hauduroy ATCC 12478; experiment: 45 hr MIC against M. kansasii (NTM), Mueller Hinton broth; type: cell-based, Mycobacterium kansasii
# [5] = Stability assessment in 100% CAA; type: in vitro ADME; parameters: unit not given beside the values
# Protocol: Stability was assessed after incubation in 100% human serum at 37° C. after 10 minutes, 1 hour, and 2 hours.
# Stability assessment was further conducted in 100% CAA and rabbit serum using the same methodology discussed above.
# M. smegmatis = experiment: 45 hr MIC against M. smegmatis (NTM), Mueller Hinton broth; type: cell-based, Mycobacterium smegmatis
# [6] = system: carbapenem-resistant bacterial strains; experiment: organism not typed; type: cell-based
# Excerpt: (§1) Determination of Minimal Inhibitory Concentrations (MIC).
# [7] = system: carbapenem-resistant P. aeruginosa clinical isolate CFS-1292; experiment: MIC by modified CLSI broth microdilution against P. aeruginosa CFS-1292 (CAA, CAA + human serum); type: cell-based, Pseudomonas aeruginosa; conditions: for MIC (μg/mL) against CFS-1292 in 100% CAA (1st run/2nd run): 1st run or single value
# Klebsiella pneumoniae [8] = experiment: microbe, parasite or virus in culture; type: cell-based; conditions: CAA without human serum
# [9] = system: Pseudomonas aeruginosa, Escherichia coli, Enterobacter cloacae, Klebsiella pneumoniae, and Acinetobacter baumannii; experiment: MIC against a range of Gram-negative organisms (statements covering several species); type: cell-based; conditions: Tables 40-44 isolates
# Protocol: as §1
# (§2) Additional MIC testing was performed for several peptides against the ESKAPE pathogens Escherichia coli, Enterobacter cloacae, Klebsiella pneumoniae, and Acinetobacter baumannii, in CAA supplemented with human serum (Table D).
# [10] = system: P. aeruginosa strain CFS-1292; experiment: MIC in presence of divalent cations (calcium chloride, magnesium sulfate); type: cell-based, Pseudomonas aeruginosa
# Protocol: Next, Chp peptides were evaluated in the presence of different divalent cations. […]; (2) in the presence of 2 mM calcium chloride alone; (3) in the presence of 1 mM magnesium sulfate alone; and (4) in the presence of both 2 mM calcium chloride and 1 mM magnesium sulfate. […]
# Klebsiella pneumoniae [11] = type: cell-based; conditions: for MIC50 / MIC100 / MIC Range: K. pneumoniae isolates (n per peptide in table); for MIC: Klebsiella pneumoniae HM-44, CAA supplemented with human serum
# Protocol: as §1, §2
# [12] = system: P. aeruginosa strain CFS-1292; experiment: Checkerboard assay (FICI) with antibiotics, P. aeruginosa; type: cell-based, Pseudomonas aeruginosa; conditions: for FICI: CAA + […] human serum
# How it was run: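 Antibiotic diluted 2-fold along one plate axis against Chp peptide; bacteria added at 1×10^5 […] in CAA, optionally with human serum or pulmonary surfactant.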
# [13] = CAA media + 0.19 mg/mL Survanta
# [14] = Mycobacterium tuberculosis (Zopf) Lehmann and Neumann ATCC 25177
# [15] = Mycobacterium tuberculosis (Zopf) Lehmann and Neumann ATCC 35817
# [16] = carbapenem-resistant isolate PA19
# [17] = carbapenem-resistant isolate PA20
# [18] = carbapenem-resistant isolate PA21
# [19] = carbapenem-resistant isolate PA22
# [20] = carbapenem-resistant isolate PA23
# [21] = carbapenem-resistant isolate PA24
# [22] = carbapenem-resistant isolate WLC-452
# [23] = Klebsiella pneumoniae (ATCC 10031, MIC control strain), RSC 814
# [24] = Klebsiella pneumoniae (g2-3 HM35K), RSC 1138
# [25] = Klebsiella sp. (HM-44; colon, Crohn's disease), RSC 1139
# [26] = Klebsiella spp. (HM-223; gut of Crohn's disease patient), RSC 1131
sequence,measurement,setting,value
MARRRYRLPRRRSRRLFSRTALRMHPRNRLRRIMRGGIRF [Chp6],MIC,[1]; [13],0.5 µg/mL
same,MIC,[1]; CAA media + […] Survanta,0.5 µg/mL
same,MIC,[1]; CAA media alone,0.5 µg/mL
same,MIC,[2]; [14],32 µg/mL
same,MIC,[2]; [15],4 µg/mL
same,MIC50,S. maltophilia,0.5 µg/mL
same,MIC100,S. maltophilia,1 µg/mL
same,MIC Range,S. maltophilia,0.25 to 1 µg/mL
same,activity against S. maltophilia,S. maltophilia; Table 45 isolates,active
same,Fold change in MIC,[3],1
same,"MIC, CAA + 140 mM NaCl",[3],0.5 µg/mL
same,"MIC, CAA (no added NaCl)",[3],0.5 µg/mL
same,45 hr MIC,[4],1 µg/mL
same,MIC (100% CAA),[5],0.25
same,45 hr MIC,"M. smegmatis; M. smegmatis MC^2 155, Run #1",4 µg/mL
same,45 hr MIC,"M. smegmatis; M. smegmatis MC^2 155, Run #2",4 µg/mL
same,MIC,[6]; [16],0.5 µg/mL
same,MIC,[6]; [17],1 µg/mL
same,MIC,[6]; [18],1 µg/mL
same,MIC,[6]; [19],1 µg/mL
same,MIC,[6]; [20],1 µg/mL
same,MIC,[6]; [21],1 µg/mL
same,MIC,[6]; [22],0.25 µg/mL
same,MIC (μg/mL) against CFS-1292 in 100% CAA (1st run/2nd run),[7],0.5 µg/mL
same,MIC,Klebsiella pneumoniae [8]; [23],4 µg/mL
same,MIC,Klebsiella pneumoniae [8]; [24],4 µg/mL
same,MIC,Klebsiella pneumoniae [8]; [25],1 µg/mL
same,MIC,Klebsiella pneumoniae [8]; [26],4 µg/mL
same,"activity (good = MIC100 of ≤4) against all of P. aeruginosa, K. pneumoniae, A. baumannii, E. cloacae, and E. coli",[9],good activity
same,MIC,[10]; CAA media + 1 mM MgSO4,1 µg/mL
same,MIC,[10]; CAA media + 2 mM CaCl2,0.5 µg/mL
same,MIC,[10]; CAA media + + 1 mM MgSO4,1 µg/mL
same,MIC,[10]; CAA media alone,1 µg/mL
same,MIC50,Klebsiella pneumoniae [11],0.5 µg/mL
same,MIC100,Klebsiella pneumoniae [11],1 µg/mL
same,MIC Range,Klebsiella pneumoniae [11],0.125 to 1 µg/mL
same,MIC,Klebsiella pneumoniae [11],0.125 µg/mL
MARRYRLSRRRSRRLFSRTALRMHRRNRLRRIMRGGIRF [Chp4],MIC,[1]; [13],0.5 µg/mL
same,MIC,[1]; CAA media + […] Survanta,0.5 µg/mL
same,MIC,[1]; CAA media alone,0.5 µg/mL
same,MIC,[2]; [14],16 µg/mL
same,MIC,[2]; [15],8 µg/mL
same,MIC50,S. maltophilia,0.5 µg/mL
same,MIC100,S. maltophilia,2 µg/mL
same,MIC Range,S. maltophilia,0.5 to 8 µg/mL
same,Fold change in MIC,[3],1
same,"MIC, CAA + 140 mM NaCl",[3],0.5 µg/mL
same,"MIC, CAA (no added NaCl)",[3],0.5 µg/mL
same,45 hr MIC,[4],>0.125 µg/mL
same,MIC (100% CAA),[5],0.25
same,45 hr MIC,"M. smegmatis; M. smegmatis MC^2 155, Run #1",4 µg/mL
same,45 hr MIC,"M. smegmatis; M. smegmatis MC^2 155, Run #2",4 µg/mL
same,MIC,[6]; [16],0.5 µg/mL
same,MIC,[6]; [17],1 µg/mL
same,MIC,[6]; [18],1 µg/mL
same,MIC,[6]; [19],1 µg/mL
same,MIC,[6]; [20],1 µg/mL
same,MIC,[6]; [21],1 µg/mL
same,MIC,[6]; [22],0.5 µg/mL
same,MIC (μg/mL) against CFS-1292 in 100% CAA (1st run/2nd run),[7],0.5 µg/mL
same,MIC (μg/mL) against CFS-1292 in CAA + […] human serum,[7],0.5 µg/mL
same,MIC,Klebsiella pneumoniae [8]; [23],4 µg/mL
same,MIC,Klebsiella pneumoniae [8]; [24],4 µg/mL
same,MIC,Klebsiella pneumoniae [8]; [25],4 µg/mL
same,MIC,Klebsiella pneumoniae [8]; [26],4 µg/mL
same,interaction between the Chp peptide and the antibiotic (FICI values),"[12]; P. aeruginosa CFS-1292, range of antibiotics","either synergy (i.e., ≤0.5) or strongly additive (i.e., >0.5-1)"
same,FICI,[12]; combination with Amikacin,0.500
same,FICI,[12]; combination with Azithromycin,0.156
same,FICI,[12]; combination with Aztreonam,0.375
same,FICI,[12]; combination with Ciprofloxacin,0.375
same,FICI,[12]; combination with Colistin,0.375
same,FICI,[12]; combination with Fosfomycin,0.250
same,FICI,[12]; combination with Gentamicin,0.250
same,FICI,[12]; combination with Imipenem,0.375
same,FICI,[12]; combination with Piperacillin,0.188
same,FICI,[12]; combination with Rifampicin,0.750
same,FICI,[12]; combination with Tobramycin,0.266
same,"activity (good = MIC100 of ≤4) against all of P. aeruginosa, K. pneumoniae, A. baumannii, E. cloacae, and E. coli",[9],good activity
same,MIC,[10]; CAA media + 1 mM MgSO4,0.5 µg/mL
same,MIC,[10]; CAA media + 2 mM CaCl2,1 µg/mL
same,MIC,[10]; CAA media + + 1 mM MgSO4,0.125 µg/mL
same,MIC,[10]; CAA media alone,0.5 µg/mL
same,MIC50,Klebsiella pneumoniae [11],1 µg/mL
same,MIC100,Klebsiella pneumoniae [11],1 µg/mL
same,MIC Range,Klebsiella pneumoniae [11],0.5 to 1 µg/mL
same,MIC,Klebsiella pneumoniae [11],0.25 µg/mL
MVRRRRLRRRISRRIFRRTVARVGRRRRSFRGGIRF [Chp1],MIC,[1]; [13],2 µg/mL
same,MIC,[1]; CAA media + […] Survanta,2 µg/mL
same,MIC,[1]; CAA media alone,1 µg/mL
same,MIC,[2]; [14],64 µg/mL
same,MIC,[2]; [15],32 µg/mL
same,MIC50,S. maltophilia,2 µg/mL
same,MIC100,S. maltophilia,4 µg/mL
same,MIC Range,S. maltophilia,1 to 8 µg/mL
same,Fold change in MIC,[3],1
same,"MIC, CAA + 140 mM NaCl",[3],1 µg/mL
same,"MIC, CAA (no added NaCl)",[3],1 µg/mL
same,45 hr MIC,[4],4 µg/mL
same,MIC (100% CAA),[5],0.5
same,45 hr MIC,"M. smegmatis; M. smegmatis MC^2 155, Run #1",8 µg/mL
same,45 hr MIC,"M. smegmatis; M. smegmatis MC^2 155, Run #2",16 µg/mL
same,MIC,[6]; [16],2 µg/mL
same,MIC,[6]; [17],4 µg/mL
same,MIC,[6]; [18],4 µg/mL
same,MIC,[6]; [19],4 µg/mL
same,MIC,[6]; [20],4 µg/mL
same,MIC,[6]; [21],4 µg/mL
same,MIC,[6]; [22],2 µg/mL
same,MIC (μg/mL) against CFS-1292 in 100% CAA (1st run/2nd run),[7],1 µg/mL
same,MIC (μg/mL) against CFS-1292 in CAA + […] human serum,[7],1 µg/mL
same,MIC,Klebsiella pneumoniae [8]; [23],16 µg/mL
same,MIC,Klebsiella pneumoniae [8]; [24],16 µg/mL
same,MIC,Klebsiella pneumoniae [8]; [25],8 µg/mL
same,MIC,Klebsiella pneumoniae [8]; [26],8 µg/mL
same,MIC,[10]; CAA media + 1 mM MgSO4,1 µg/mL
same,MIC,[10]; CAA media + 2 mM CaCl2,2 µg/mL
same,MIC,[10]; CAA media + + 1 mM MgSO4,1 µg/mL
same,MIC,[10]; CAA media alone,1 µg/mL
same,MIC50,Klebsiella pneumoniae [11],2 µg/mL
same,MIC100,Klebsiella pneumoniae [11],2 µg/mL
same,MIC Range,Klebsiella pneumoniae [11],1 to 4 µg/mL
same,MIC,Klebsiella pneumoniae [11],1 µg/mL
